Like-named read-outs stand apart in the source and are kept apart here.
Experiments:
α-chymotrypsin = α-chymotrypsin (Bos taurus (Bovine), UniProt P00766, DEL14-15/DEL147-148); conditions: cited from earlier work
MASP-2 = MASP-2 (Homo sapiens (Human), UniProt O00187); assay: MASP-2 inhibition (Ki); format: biochemical
Thrombin = Thrombin (Homo sapiens (Human), UniProt P00734); assay: Thrombin inhibition (Ki); format: biochemical

MASP-2, sequence (O00187 16-686): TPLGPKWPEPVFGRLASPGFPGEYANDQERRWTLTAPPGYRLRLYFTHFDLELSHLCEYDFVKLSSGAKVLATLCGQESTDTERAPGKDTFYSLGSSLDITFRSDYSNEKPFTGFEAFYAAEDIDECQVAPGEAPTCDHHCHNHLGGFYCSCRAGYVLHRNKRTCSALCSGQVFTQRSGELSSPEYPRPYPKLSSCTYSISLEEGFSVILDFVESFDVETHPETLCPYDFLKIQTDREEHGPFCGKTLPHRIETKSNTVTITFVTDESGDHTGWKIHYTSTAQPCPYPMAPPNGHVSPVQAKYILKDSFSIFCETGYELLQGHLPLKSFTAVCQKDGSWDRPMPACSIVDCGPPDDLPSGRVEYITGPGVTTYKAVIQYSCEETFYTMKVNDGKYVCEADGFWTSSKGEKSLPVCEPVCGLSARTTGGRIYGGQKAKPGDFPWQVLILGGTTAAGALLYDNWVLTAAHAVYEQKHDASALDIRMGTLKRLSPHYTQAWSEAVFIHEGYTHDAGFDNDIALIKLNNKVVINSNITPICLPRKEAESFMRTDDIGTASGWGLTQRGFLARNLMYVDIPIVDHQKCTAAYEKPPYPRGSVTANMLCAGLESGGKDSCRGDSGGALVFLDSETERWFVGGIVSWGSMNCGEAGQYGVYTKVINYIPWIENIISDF

**Q.** For MeO-Suc-Ala-Ala-ProboroPhe-OH, which Ki (α-chymotrypsin) is on record?
**A.** 0.00016 µM

**Q.** What does the source list for O=C(O)c1ccc2c(c1)C1C=CCC1C(C(=O)O)N2 (stereo not drawn) [compound 28]?
**A.** Ki (MASP-2): 25 to 100 µM; Thrombin Ki (μM) (Thrombin): No activity

**Q.** With Cc1sc2nc(-c3ccccc3F)oc(=O)c2c1C [compound 42] as the molecule, how does the Ki (MASP-2) read?
**A.** < 10 µM

**Q.** What about the Ki (Thrombin; read-out: Thrombin Ki) of the same molecule?
**A.** 25 to 100 µM

**Q.** Which results are given for COc1ccc(/C=C2\N=C(c3ccccc3OC)OC2=O)cc1OC [compound 3]?
**A.** Ki (MASP-2): 25 to 100 µM; Ki (Thrombin; read-out: Thrombin Ki): < 10 µM

**Q.** Which Ki (MASP-2) does the source give for Nc1cc(OC(=O)c2ccco2)nn1S(=O)(=O)c1ccc(F)cc1 [compound 44] here?
**A.** < 10 µM

**Q.** What about the Ki (Thrombin; read-out: Thrombin Ki) of the same molecule?
**A.** 25 to 100 µM

**Q.** With Nc1nc2ccccc2[nH]1 [compound 46] as the molecule, how does the Ki (MASP-2) read?
**A.** 25 to 100 µM

**Q.** What about the “Thrombin Ki (μM)” value (Thrombin) of the same molecule?
**A.** No activity

**Q.** Which results are given for CCCc1nnc(NC(CC)OC(=O)c2cc(C)nc3ccccc23)s1 (stereo not drawn) [compound 23]?
**A.** Ki (MASP-2): < 10 µM; Thrombin Ki (μM) (Thrombin): No Activity

**Q.** For CCc1cc2c(=O)oc(-c3ccccc3C)nc2s1 [compound 43], which Ki (MASP-2) is on record?
**A.** < 10 µM

**Q.** And the Ki (Thrombin; read-out: Thrombin Ki)?
**A.** 25 to 100 µM

**Q.** With N#Cc1ccc(OC(=O)c2ccc(Br)o2)cc1 [compound 45] as the molecule, how does the Ki (MASP-2) read?
**A.** < 10 µM

**Q.** What about the Ki (Thrombin; read-out: Thrombin Ki) of the same molecule?
**A.** 25 to 100 µM

**Q.** Which Ki (MASP-2) does the source give for O=C(c1cccc2ccccc12)n1cccn1 [compound 32] here?
**A.** < 10 µM

**Q.** And the “Thrombin Ki (μM)” value (Thrombin)?
**A.** No activity

**Q.** For CCOC(=O)c1ccc2c(c1)C1C=CCC1C(C(=O)O)N2 (stereo not drawn) [compound 13], which Ki (MASP-2) is on record?
**A.** 25 to 100 µM

**Q.** What about the “Thrombin Ki (μM)” value (Thrombin) of the same molecule?
**A.** No activity

**Q.** With O=C(O)C1Nc2c(O)cc(Cl)c([N+](=O)[O-])c2C2C=CCC12 (stereo not drawn) [compound 22] as the molecule, how does the Ki (MASP-2) read?
**A.** 10 to 25 µM

**Q.** And the “Thrombin Ki (μM)” value (Thrombin)?
**A.** No Activity

**Q.** What does the source list for O=c1[nH]c2ccccc2c(=O)o1 [compound 26]?
**A.** Ki (MASP-2): < 10 µM; Ki (Thrombin): 25 to 100 µM

**Q.** For CN(C)C(=S)Nc1ccccc1C(=O)O [compound 25], which Ki (MASP-2) is on record?
**A.** 25 to 100 µM

**Q.** And the “Thrombin Ki (μM)” value (Thrombin)?
**A.** No activity

**Q.** With CC(=O)c1ccc(OC(=O)c2ccco2)cc1 [compound 41] as the molecule, how does the Ki (MASP-2) read?
**A.** < 10 µM

**Q.** And the “Thrombin Ki (μM)” value (Thrombin)?
**A.** No activity

**Q.** For Cc1c(/N=C/c2ccc(OC(=O)c3ccccn3)cc2)c(=O)n(-c2ccccc2)n1C [compound 17], which Ki (MASP-2) is on record?
**A.** < 10 µM

**Q.** What about the Ki (Thrombin; read-out: Thrombin Ki) of the same molecule?
**A.** 25 to 100 µM

**Q.** What does the source list for CN(C(=O)c1cc2ccccc2cc1C(=O)C(c1cccc2ccccc12)P(=O)(O)O)C1CCN(C(=O)c2ccccc2)CC1 (stereo not drawn) [compound 51]?
**A.** Ki (MASP-2): 10 to 25 µM; Thrombin Ki (μM) (Thrombin): No activity

— US11584714B2 (priority 2018, dated 2023)
